Data on ten compounds can be found in patent US4051141A, “Thieno[3,2-c]pyridine derivatives” (Centre d'Etudes pour l'Industrie pharmaceutique, priority 1973, dated 1977).

Each structure is given as a SMILES string.

Data set [1] in a line: Acute toxicity, LD50/24 hrs, intravenous, derivatives of formula (IV). Particulars: mouse, in vivo, mice, read-out: LD50/24 hrs/kg body weight. The text has this: It concerned the acute toxicity, the subacute toxicity, the chronic toxicity, the tolerance and the teratology of said derivatives.
The nature of the next data set: in vivo. The note with it: mouse, iv, read-out: LD50/24 hrs/kg body weight.
Data set [2] has as its system carrageenin-induced edema. The data set is described as follows: Localised carrageenin-induced edema method (anti-inflammatory action). Type of data set: in vivo. The note with it: rats, oral 100 mg/kg (1 h before, with, 1 h and 2.5 h after). On the procedure: a. Localised Carrageenin-induced Edema Method A 1% carrageenin solution (1 ml) is injected in the metatarsal flexor muscles of the right hind paw of rats at time O. The animals of the treated lots are additionally administered orally 100 mg/kg of the test derivative, respectively one hour prior to and then simultaneously with the phlogogenic agent, and then one hour and 2.5 hrs thereafter. The percent anti-inflammatory activity with respect to the reference lot, as a function of time, is determined by measurements effected with a Roch micrometer at times O, one hour, two hours, three hours and five hours after carrageenin administration.
For orientation: In the carrageenan paw model, swelling and tenderness develop within hours.

The subject of a further data set is ovalbumin-induced edema. Nature of the data set: Ovalbumin-induced systemic edema method (anti-inflammatory action). Type of data set: in vivo. The note with it: rats, oral 100 mg (1 h before and with ovalbumin). On the procedure: b. Ovalbumin-induced Systemic Edema Method Rats are administered a simultaneous intraperitoneal injection of 1 ml ovalbumin and 0.5 ml of a 1.[…]. aqueous Evans Blue solution. The animals of the treated lot are additionally administered orally 100 mg of the test derivative, one hour prior to ovalbumin administration and simultaneously with said ovalbumin administration. The intensity of the phenomenon thus induced is scored according to a scale from 1 to 5, according to the progress of the inflammatory syndrome. Thus are determined the mean intensity of the edema and the percent decrease of the edema reaction with respect to the control lot. Said percentage, for derivative No. 5, for example, is 62% after two hours and 70% after three hours.

The test system of a further data set is blood plate aggregation. The data set is described as follows: Inhibitor action on blood plate aggregation induced by adenosine diphosphate (turbidimetric assay of serum from treated animals). Type of data set: in vivo. Particulars: rats, 100 mg/kg. The source says: 2. Inhibitor Action on Blood Plate Aggregation
The normally cloudy blood plate rich serum of rats is made clear by addition of adenosine diphosphate which induces aggregation of the blood plates. […] Thus, the inhibitor action on blood plate aggregation of the test derivatives may be evaluated by means of a simple spectrophotometric turbidimetric assay.

For the compound `COc1ccc(C(=O)C[n+]2ccc3sccc3c2)cc1.[Br-]` [derivative No. 31, N-(para-methoxy-phenacyl)-thieno[3,2-c]pyridinium bromide], the LD50 at 24 h in data set [1] amounted to 32 mg/kg.

On to `O=C(C[n+]1ccc2sccc2c1)c1ccccc1.[Br-]` [derivative No. 24, 5-phenacyl-thieno[3,2-c]pyridinium bromide], for which the LD50 at 24 h in data set [1] was determined as 19 mg/kg.

`COc1cccc(C(=O)C[n+]2ccc3sccc3c2)c1.[Br-]` [derivative No. 32, N-(meta-methoxy-phenacyl)-thieno[3,2-c]pyridinium bromide]: in data set [1], the LD50 at 24 h amounted to 16 mg/kg.

On to `O=C(C[n+]1ccc2sccc2c1)c1ccc(F)cc1.[Cl-]` [derivative No. 29, 5-para-fluoro-phenacyl-thieno[3,2-c]pyridinium chloride], for which, in data set [1], the LD50 at 24 h turned out to be 16 mg/kg.

For `COc1cc(CN2CCc3sccc3C2)cc(OC)c1OC` [derivative 3, 5-(3,4,5-trimethoxy-benzyl)-4,5,6,7-tetrahydrothieno[3,2-c]pyridine], in the data set “in vivo”, the LD50 at 24 h is 60 mg/kg.

As for `COc1ccccc1C(=O)C[n+]1ccc2sccc2c1` [derivative No. 25, 5-(O-Methoxy-Phenacyl)-Thieno[3,2-c]Pyridinium bromide], the LD50 at 24 h in data set [1] amounted to 18 mg/kg.

With `O=C(C[n+]1ccc2sc(Cl)cc2c1)c1ccccc1.[Br-]` [derivative No. 26, 2-chloro-5-phenacyl-thieno[3,2-c]pyridinium bromide], the LD50 at 24 h in data set [1] was 38 mg/kg.

For the compound `O=C(C[n+]1ccc2sccc2c1)c1ccc(O)cc1.[Cl-]` [derivative No. 30, N-(para-hydroxy-phenacyl)-thieno[3,2-c]pyridinium chloride], the LD50 at 24 h in data set [1] stood at 25 mg/kg.

Take `Cl.Clc1ccc(CN2CCc3sccc3C2)cc1` [derivative 5, 5-parachlorobenzyl-4,5,6,7-tetrahydro-thieno-[3,2-c]pyridine hydrochloride]: the “percent anti-inflammatory activity with respect to the reference lot” value in data set [2] (after five hours) turned out to be 55%; in data set [2] (after one hour) it was 45%; in data set [2] (after three hours), 52%; in data set [2] (after two hours), 51%. For the same compound, the figures for the “percent decrease of the edema reaction with respect to the control lot” value in the data set with ovalbumin-induced edema (after three hours) and in the data set with ovalbumin-induced edema (after two hours) were 70% and 62%, respectively. Also, the “protection against blood plate aggregation” value with blood plate aggregation is given as “greater than 95%”.

As for `O=C(C[n+]1ccc2sccc2c1)c1ccc(Cl)cc1.[Br-]` [derivative No. 27, N-parachloro-phenacyl-thieno[3,2-c]pyridinium bromide], in data set [1], the LD50 at 24 h is 17.5 mg/kg.
